Assay [1] has as its target T1, Serine/threonine-protein kinase Chk1 (Homo sapiens) (UniProt O14757).
T1 sequence (whole entry): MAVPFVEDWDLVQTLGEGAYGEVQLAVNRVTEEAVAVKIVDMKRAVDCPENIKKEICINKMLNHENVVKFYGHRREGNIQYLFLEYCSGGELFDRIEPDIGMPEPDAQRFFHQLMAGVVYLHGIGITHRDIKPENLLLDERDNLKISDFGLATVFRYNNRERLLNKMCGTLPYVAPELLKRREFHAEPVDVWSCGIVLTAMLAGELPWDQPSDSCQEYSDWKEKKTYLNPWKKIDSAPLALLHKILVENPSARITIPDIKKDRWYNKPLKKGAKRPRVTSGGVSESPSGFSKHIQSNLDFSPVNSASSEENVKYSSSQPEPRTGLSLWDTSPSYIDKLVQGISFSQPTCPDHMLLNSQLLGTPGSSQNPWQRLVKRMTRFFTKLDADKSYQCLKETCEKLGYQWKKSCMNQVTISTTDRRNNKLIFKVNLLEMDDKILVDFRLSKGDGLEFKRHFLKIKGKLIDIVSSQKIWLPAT
Nature of the assay: Inhibition of CHK1 phosphorylation at S317 residue in human FOLFOX-resistant HT-29 cells after 24 hrs by Western blot analysis. In general terms: Immunoblotting shows a protein as a band on a membrane.

In assay [2] the target is T1, Serine/threonine-protein kinase Chk1 (Homo sapiens). Put plainly: Inhibition of CHK1 phosphorylation at S296 residue in human FOLFOX-resistant HT-29 cells after 24 hrs by Western blot analysis.
For assay [3] the target is unchanged. Put plainly: Inhibition of CHK1 phosphorylation at S345 residue in human FOLFOX-resistant HCT116 cells after 24 hrs by Western blot analysis.
Assay [4] deals with T2, Serine/threonine-protein kinase A-Raf (Homo sapiens) (UniProt P10398).
T2 sequence (whole entry): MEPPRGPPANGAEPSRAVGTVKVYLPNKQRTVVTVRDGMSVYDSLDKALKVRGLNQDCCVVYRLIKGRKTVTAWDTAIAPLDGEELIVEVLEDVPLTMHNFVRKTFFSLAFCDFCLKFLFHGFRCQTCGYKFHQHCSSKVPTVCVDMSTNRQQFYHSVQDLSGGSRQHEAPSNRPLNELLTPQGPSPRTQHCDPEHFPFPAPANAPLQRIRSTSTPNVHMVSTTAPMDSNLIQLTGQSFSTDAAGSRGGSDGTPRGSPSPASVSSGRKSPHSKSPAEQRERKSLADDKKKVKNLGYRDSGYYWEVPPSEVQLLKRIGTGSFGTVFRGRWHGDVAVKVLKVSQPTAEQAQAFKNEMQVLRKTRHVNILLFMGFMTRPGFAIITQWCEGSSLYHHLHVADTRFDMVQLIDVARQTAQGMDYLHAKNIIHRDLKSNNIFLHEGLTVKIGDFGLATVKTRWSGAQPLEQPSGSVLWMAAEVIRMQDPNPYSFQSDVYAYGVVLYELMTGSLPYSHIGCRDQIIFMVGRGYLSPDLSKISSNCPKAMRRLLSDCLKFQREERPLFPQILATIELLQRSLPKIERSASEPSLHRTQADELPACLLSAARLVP
Put plainly: Inhibition of human ARAF assessed as residual activity at 1 uM using MEK1 as substrate by [gamma-33P]-ATP assay relative to control.

The target of assay [5] is Mitogen-activated protein kinase kinase kinase 5 (Homo sapiens) (UniProt Q99683). Nature of the assay: Inhibition of human ASK1 assessed as residual activity at 1 uM using MBP as substrate by [gamma-33P]-ATP assay relative to control.
Assay [6] has as its target Aurora kinase C (Homo sapiens) (UniProt Q9UQB9). Put plainly: Inhibition of human Aurora C assessed as residual activity at 1 uM using [H-LRRASLG] as substrate by [gamma-33P]-ATP assay relative to control.
The target of assay [7] is Hepatocyte growth factor receptor (Homo sapiens) (UniProt P08581). Put plainly: Inhibition of human c-MET assessed as residual activity at 1 uM using KKKSPGEYVNIEFG as substrate by [gamma-33P]-ATP assay relative to control.
Assay [8] concerns the target Calcium/calmodulin-dependent protein kinase type 1B (Homo sapiens) (UniProt Q6P2M8). Nature of the assay: Inhibition of human CAMK1B assessed as residual activity at 1 uM using KKALRRQETVDAL as substrate by [gamma-33P]-ATP assay relative to control.
Assay [9] has as its target Vascular endothelial growth factor receptor 1 (Homo sapiens) (UniProt P17948). Put plainly: Inhibition of human FLT1 assessed as residual activity at 1 uM using poly[Glu:Tyr] (4:1) as substrate by [gamma-33P]-ATP assay relative to control.
The target of assay [10] is Casein kinase I isoform alpha (Homo sapiens) (UniProt P48729). Nature of the assay: Inhibition of human CK1a1 assessed as residual activity at 1 uM using KRRRAL[pS]VASLPGL as substrate by [gamma-33P]-ATP assay relative to control.
The target in assay [11] is Casein kinase II subunit alpha (Homo sapiens, UniProt P68400). Nature of the assay: Inhibition of human CK2A assessed as residual activity at 1 uM using RRRDDDSDDD as substrate by [gamma-33P]-ATP assay relative to control.
Assay [12] has as its target Dual specificity protein kinase CLK4 (Homo sapiens) (UniProt Q9HAZ1). Put plainly: Inhibition of human CLK4 assessed as residual activity at 1 uM using MBP as substrate by [gamma-33P]-ATP assay relative to control.
Assay [13] deals with Insulin receptor (Homo sapiens) (UniProt P06213). Put plainly: Inhibition of human IR assessed as residual activity at 1 uM using poly[Glu:Tyr] (4:1) as substrate by [gamma-33P]-ATP assay relative to control.
Assay [14] addresses Serine/threonine-protein kinase STK11 (Homo sapiens) (UniProt Q15831). Nature of the assay: Inhibition of human LKB1 assessed as residual activity at 1 uM using LSNLYHQGKFLQTFCGSPLYRRR as substrate by [gamma-33P]-ATP assay relative to control.
Assay [15] addresses MAP/microtubule affinity-regulating kinase 4 (Homo sapiens) (UniProt Q96L34). Put plainly: Inhibition of human MARK4 assessed as residual activity at 1 uM using KKKVSRSGLYRSPSMPENLNRPR as substrate by [gamma-33P]-ATP assay relative to control.
For assay [16], the target named is Mitogen-activated protein kinase kinase kinase 3 (Homo sapiens) (UniProt Q99759). Nature of the assay: Inhibition of human MEKK3 assessed as residual activity at 1 uM using MBP as substrate by [gamma-33P]-ATP assay relative to control.
The target of assay [17] is Myosin light chain kinase 2, skeletal/cardiac muscle (Homo sapiens) (UniProt Q9H1R3). Put plainly: Inhibition of human MLCK2 assessed as residual activity at 1 uM using KKLNRTLSFAEPG as substrate by [gamma-33P]-ATP assay relative to control.
The target in assay [18] is Platelet-derived growth factor receptor beta (Homo sapiens) (UniProt P09619). Nature of the assay: Inhibition of human PDGFRbeta assessed as residual activity at 1 uM using poly[Glu:Tyr] (4:1) as substrate by [gamma-33P]-ATP assay relative to control.
Assay [19] deals with Protein kinase C epsilon type (Homo sapiens) (UniProt Q02156). Nature of the assay: Inhibition of human PKCepsilon assessed as residual activity at 1 uM using ERMRPRKRQGSVRRRV as substrate by [gamma-33P]-ATP assay relative to control.

Molecules are shown by their SMILES.

Sequence of Hepatocyte growth factor receptor (Homo sapiens) (P08581 whole entry): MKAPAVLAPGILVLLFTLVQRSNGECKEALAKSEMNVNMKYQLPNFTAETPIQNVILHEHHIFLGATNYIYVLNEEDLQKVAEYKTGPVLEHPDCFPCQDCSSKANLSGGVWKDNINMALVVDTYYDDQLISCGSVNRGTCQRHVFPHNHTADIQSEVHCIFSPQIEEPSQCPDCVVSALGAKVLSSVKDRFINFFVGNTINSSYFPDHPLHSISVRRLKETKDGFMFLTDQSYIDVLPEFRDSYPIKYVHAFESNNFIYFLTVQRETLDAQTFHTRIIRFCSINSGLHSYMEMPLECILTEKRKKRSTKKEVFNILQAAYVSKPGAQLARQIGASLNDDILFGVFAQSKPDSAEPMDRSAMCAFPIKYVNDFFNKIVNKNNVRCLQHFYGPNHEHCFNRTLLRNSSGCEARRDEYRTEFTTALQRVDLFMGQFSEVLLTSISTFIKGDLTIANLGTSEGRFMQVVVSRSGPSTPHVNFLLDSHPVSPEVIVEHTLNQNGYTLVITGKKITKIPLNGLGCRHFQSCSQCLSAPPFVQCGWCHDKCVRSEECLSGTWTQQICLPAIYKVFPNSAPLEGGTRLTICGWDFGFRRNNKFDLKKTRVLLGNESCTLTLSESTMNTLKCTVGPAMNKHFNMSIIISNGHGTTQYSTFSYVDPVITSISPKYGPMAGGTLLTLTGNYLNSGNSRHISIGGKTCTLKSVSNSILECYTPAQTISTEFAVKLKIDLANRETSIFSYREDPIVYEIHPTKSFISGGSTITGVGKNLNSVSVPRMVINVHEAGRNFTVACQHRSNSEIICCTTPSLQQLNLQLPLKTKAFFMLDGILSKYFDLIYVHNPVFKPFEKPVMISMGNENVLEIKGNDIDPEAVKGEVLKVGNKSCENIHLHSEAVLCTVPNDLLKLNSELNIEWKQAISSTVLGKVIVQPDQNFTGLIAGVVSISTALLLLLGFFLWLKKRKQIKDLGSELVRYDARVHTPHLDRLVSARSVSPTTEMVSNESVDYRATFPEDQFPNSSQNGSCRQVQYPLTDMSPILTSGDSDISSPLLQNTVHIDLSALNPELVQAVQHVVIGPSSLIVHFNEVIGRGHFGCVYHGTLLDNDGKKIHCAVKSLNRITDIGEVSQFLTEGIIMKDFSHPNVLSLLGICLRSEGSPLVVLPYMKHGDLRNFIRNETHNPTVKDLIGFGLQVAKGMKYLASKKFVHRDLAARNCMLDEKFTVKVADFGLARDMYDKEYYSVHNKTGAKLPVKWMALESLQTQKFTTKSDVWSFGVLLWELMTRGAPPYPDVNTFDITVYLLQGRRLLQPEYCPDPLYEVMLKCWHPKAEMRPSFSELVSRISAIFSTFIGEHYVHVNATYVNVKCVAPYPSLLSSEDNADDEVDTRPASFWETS
Sequence of Vascular endothelial growth factor receptor 1 (Homo sapiens) (P17948 whole entry, canonical isoform): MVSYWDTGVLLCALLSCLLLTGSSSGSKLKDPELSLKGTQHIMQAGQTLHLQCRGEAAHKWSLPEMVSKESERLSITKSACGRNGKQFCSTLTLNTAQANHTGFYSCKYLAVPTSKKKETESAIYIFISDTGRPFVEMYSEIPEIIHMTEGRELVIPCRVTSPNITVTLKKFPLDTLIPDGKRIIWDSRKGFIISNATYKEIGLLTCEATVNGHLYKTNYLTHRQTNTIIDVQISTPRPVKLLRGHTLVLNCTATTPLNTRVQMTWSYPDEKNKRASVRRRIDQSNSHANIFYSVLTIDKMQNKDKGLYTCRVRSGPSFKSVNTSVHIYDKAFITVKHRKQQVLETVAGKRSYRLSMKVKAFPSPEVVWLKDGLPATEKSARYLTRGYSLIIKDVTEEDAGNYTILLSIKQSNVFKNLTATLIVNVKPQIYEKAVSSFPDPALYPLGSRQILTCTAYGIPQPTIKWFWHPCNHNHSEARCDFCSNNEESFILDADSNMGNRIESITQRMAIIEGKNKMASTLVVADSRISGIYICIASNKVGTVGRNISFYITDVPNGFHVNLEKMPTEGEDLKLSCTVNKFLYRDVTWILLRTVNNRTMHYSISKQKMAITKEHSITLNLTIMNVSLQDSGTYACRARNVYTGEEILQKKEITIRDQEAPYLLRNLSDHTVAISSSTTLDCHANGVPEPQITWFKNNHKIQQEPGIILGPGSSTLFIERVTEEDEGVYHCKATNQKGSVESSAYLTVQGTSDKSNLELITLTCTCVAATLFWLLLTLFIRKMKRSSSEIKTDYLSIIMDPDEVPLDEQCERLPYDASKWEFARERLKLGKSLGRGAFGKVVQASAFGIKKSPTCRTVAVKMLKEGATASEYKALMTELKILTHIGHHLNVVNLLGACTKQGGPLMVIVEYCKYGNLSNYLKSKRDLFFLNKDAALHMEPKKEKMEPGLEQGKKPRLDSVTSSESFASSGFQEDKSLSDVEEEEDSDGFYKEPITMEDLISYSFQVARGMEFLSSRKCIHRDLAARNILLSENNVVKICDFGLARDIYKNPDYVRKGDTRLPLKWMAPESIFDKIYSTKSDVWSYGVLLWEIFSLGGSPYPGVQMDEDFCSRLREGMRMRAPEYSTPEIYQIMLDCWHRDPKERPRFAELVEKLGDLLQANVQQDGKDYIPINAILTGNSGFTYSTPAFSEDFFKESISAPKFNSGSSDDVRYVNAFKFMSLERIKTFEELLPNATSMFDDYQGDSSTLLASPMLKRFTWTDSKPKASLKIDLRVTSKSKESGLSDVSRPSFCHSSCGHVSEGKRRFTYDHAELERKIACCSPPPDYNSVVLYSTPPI
Sequence of Casein kinase II subunit alpha (P68400 whole entry, looked up): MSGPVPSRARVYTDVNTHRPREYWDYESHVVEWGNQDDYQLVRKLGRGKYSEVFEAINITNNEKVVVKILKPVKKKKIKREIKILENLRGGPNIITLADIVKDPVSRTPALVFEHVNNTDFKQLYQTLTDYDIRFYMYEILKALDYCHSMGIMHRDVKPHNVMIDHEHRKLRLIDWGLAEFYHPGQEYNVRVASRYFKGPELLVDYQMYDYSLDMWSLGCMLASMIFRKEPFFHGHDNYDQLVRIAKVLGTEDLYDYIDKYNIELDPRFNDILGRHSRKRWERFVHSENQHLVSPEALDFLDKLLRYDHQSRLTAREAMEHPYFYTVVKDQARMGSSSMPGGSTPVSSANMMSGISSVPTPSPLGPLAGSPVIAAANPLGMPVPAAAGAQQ
Sequence of Serine/threonine-protein kinase STK11 (Homo sapiens) (Q15831 whole entry): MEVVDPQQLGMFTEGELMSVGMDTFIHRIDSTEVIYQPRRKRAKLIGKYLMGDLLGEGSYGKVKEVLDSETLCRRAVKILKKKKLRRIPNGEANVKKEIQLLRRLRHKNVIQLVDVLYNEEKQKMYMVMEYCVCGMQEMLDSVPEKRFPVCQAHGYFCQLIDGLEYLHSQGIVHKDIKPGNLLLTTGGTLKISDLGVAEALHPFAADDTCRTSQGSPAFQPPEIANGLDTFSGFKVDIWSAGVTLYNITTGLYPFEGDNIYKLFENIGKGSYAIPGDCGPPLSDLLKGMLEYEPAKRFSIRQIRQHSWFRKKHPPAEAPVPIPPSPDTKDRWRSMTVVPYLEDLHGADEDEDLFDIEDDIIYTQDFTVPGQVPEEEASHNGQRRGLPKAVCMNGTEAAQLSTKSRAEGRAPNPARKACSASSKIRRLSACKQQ
Sequence of Platelet-derived growth factor receptor beta (Homo sapiens) (P09619 whole entry): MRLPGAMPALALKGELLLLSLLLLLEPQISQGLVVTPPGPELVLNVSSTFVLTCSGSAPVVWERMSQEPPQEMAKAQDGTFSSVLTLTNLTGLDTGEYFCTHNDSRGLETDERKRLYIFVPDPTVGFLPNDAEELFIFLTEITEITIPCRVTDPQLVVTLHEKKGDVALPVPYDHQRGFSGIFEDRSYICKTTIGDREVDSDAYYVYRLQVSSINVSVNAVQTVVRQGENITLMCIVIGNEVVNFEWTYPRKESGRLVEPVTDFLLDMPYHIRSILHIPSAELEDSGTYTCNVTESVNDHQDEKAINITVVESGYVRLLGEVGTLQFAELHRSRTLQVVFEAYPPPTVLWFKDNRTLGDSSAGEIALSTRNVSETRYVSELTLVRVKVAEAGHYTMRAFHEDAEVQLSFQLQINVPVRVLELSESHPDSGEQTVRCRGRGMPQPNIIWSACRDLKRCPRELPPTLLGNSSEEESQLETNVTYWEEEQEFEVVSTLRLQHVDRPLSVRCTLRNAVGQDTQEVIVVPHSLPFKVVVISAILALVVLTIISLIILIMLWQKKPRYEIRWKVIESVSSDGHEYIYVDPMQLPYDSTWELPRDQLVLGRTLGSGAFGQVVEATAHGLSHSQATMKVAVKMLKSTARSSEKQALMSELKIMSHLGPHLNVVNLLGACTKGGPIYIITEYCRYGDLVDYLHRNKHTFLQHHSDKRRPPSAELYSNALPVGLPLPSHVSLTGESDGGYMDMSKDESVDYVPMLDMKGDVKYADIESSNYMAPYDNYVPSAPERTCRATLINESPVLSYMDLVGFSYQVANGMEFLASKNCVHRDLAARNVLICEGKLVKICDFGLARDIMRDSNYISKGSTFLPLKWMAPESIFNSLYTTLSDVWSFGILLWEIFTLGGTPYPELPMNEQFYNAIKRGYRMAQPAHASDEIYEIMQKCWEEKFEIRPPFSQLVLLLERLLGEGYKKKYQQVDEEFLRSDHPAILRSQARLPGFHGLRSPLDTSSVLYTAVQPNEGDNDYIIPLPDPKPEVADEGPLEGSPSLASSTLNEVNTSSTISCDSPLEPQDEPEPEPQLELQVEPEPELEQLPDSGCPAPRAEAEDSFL
Sequence of Casein kinase I isoform alpha (Homo sapiens) (P48729 2-337 limits assumed): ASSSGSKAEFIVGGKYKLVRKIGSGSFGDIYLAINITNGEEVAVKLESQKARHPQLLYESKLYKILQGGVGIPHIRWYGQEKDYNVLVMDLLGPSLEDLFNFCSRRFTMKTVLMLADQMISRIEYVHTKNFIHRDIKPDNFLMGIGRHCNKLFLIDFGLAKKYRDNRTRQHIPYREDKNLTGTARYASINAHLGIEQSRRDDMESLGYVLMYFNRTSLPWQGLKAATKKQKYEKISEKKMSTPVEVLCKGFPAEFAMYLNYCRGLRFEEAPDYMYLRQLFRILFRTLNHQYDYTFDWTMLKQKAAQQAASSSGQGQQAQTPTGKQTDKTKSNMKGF

In the case of `C(=C\c1ccccc1)/C[N+]12CN3CN(CN(C3)C1)C2`, the inhibition result in assay [1], in assay [2] and in [3] was “Dose-dependent effect” in each case. Moreover, the Activity lay within 92 to 97% in assay [4]; 89.4 to 90.7% in assay [5]; 95.8 to 96.8% in [6]; 78.7 to 88% in assay [7]; 80.5 to 87.2% in assay [8]; 96.1 to 97.1% in assay [9]. Besides, the Activity fell in the range of 94.9 to 96.5% in assay [10]; 124 to 125% in assay [11]; 93.1 to 93.2% in assay [12]; 96 to 96.4% in [13]; 89.2 to 92.2% in assay [14]; 93.8 to 96.3% in assay [15]. For the same compound, the Activity was 117 to 119% in assay [16], 91.7 to 94.8% in [17], 91.9 to 93.1% in assay [18] and 121 to 126% in assay [19].

As to `ClC/C=C/C[N+]12CN3CN(CN(C3)C1)C2`, the inhibition result in [1], in [2] and in assay [3] was “Dose-dependent effect” in each case. The Activity in [4] was in the range of 93.8 to 95.3%; in assay [5], 87.6 to 89%; in [6] it was 87.2 to 91.4%; in assay [7] it was 84.9 to 90.2%; in [8] it was 87.8 to 88.7%; in [9] it was 94.7 to 95.5%. Moreover, the Activity in assay [10] fell in the range of 95.6 to 96.5%; in [11], 124 to 125%; in assay [12], 86.9 to 91.8%; in assay [13] it was 95 to 96.7%; in assay [14], 92 to 94.8%; in assay [15], 90.2 to 95.2%. Further, the Activity is 118 to 123% in assay [16], 93.7 to 95.3% in assay [17], 90.5 to 92% in assay [18] and 121 to 133% in [19].

The values above are taken from ChEMBL document CHEMBL4325871 (Eur J Med Chem, 2019).
